Measurements as given in patent US20230293407A1, “Compositions Comprising (Bio)-Alkanediols with Antimicrobials for Product Protection” (Symrise AG, priority 2020, published 2023).

Tests used:
[1] = maximum water solubility of alkanediols, visual observation; type: physicochemical; details: ambient temperature after 24 h storage at 5° C.
Source text: The water solubility of a substance is the saturation mass concentration of the substance in water at a given temperature. The determination of the solubility in water relates to essentially pure substances which are stable in water and not volatile. The determination of the water solubility of the alkanediols is further described in the following Example 2.
For the determination of the maximum water solubility of an alkanediol, water and different concentrations of the respective alkanediol were blended by stirring. […] The determination of whether the alkanediol has dissolved in water is based entirely on visual observation.

Staphylococcus aureus = assay: preservation efficacy test (PET), European Pharmacopoeia 5.1.3; type: cell-based; details: for SA germ count, 14 days / number of microorganisms, 14 days / count at 14 days: 14 days after inoculation; for SA germ count, 28 days / number of microorganisms, 28 days / count at 28 days: 28 days after inoculation; for number of microorganisms, 7 days / number of microorganisms, 14 days / number of microorganisms, 28 days: Staphylococcus aureus (SA)
yeast = assay: preservation efficacy test (PET), overview of the effect against yeast; type: cell-based, Candida albicans; details: PET in a shampoo formulation, result in words on Table 8
Escherichia coli = assay: preservation efficacy test (PET), European Pharmacopoeia 5.1.3; type: cell-based; details: for count at 2 days / count at 7 days / count at 14 days / count at 28 days: EC, use concentration in label
Pseudomonas aeruginosa = assay: as above; type: cell-based; details: for PA germ count, 2 days / count at 2 days: 2 days after inoculation; for PA germ count, 2 days / PA germ count, 7 days / PA germ count, 14 days / PA germ count, 28 days: substance at given % in test formulation; for PA germ count, 7 days / count at 7 days: 7 days after inoculation; for PA germ count, 14 days / count at 14 days: 14 days after inoculation; for PA germ count, 28 days / count at 28 days: 28 days after inoculation; for count at 2 days / count at 7 days / count at 14 days / count at 28 days: PA, use concentration in label
Candida albicans = assay: as above; type: cell-based; details: for count at 2 days / count at 7 days / count at 14 days / count at 28 days: CA, use concentration in label; for number of microorganisms, 28 days: Candida albicans (CA)
Aspergillus brasiliensis = assay: as above; type: cell-based; details: for count at 2 days / count at 7 days / count at 14 days / count at 28 days: AB, use concentration in label; for count at 2 days: 2 days after inoculation
[2] = substance at given % in test formulation
[3] = SA, 7 days after inoculation, use concentration in label
[4] = 2 days after inoculation, substance at given % in test formulation
[5] = 7 days after inoculation, substance at given % in test formulation
[6] = 14 days after inoculation, substance at given % in test formulation
[7] = 28 days after inoculation, substance at given % in test formulation

For CCCC(O)CO (stereo not shown) [Hydrolite ® 5 green], which “Maximum solubility in water” value [1] is on record?
Its value is 50 % by weight.

With CCCCC(O)CO (stereo not shown) [Hydrolite ® 6] as the molecule, how does the “Maximum solubility in water” value [1] read?
Its value is 50 % by weight.

For CCCCCC(O)C(C)O (stereo not shown) [2,3-octanediol], which “SA germ count, 14 days” value (Staphylococcus aureus; [2]) is on record?
The value was 1.

And the “SA germ count, 28 days” value (Staphylococcus aureus; [2])?
Its value is 1.

What about the “number of microorganisms, 7 days” value (Staphylococcus aureus; PET in shampoo, 7 days after inoculation) of the same molecule?
Its value is 1.

And the “number of microorganisms, 14 days” value (Staphylococcus aureus; PET in shampoo)?
The value was 1.

And the “number of microorganisms, 28 days” value (Staphylococcus aureus; PET in shampoo)?
Its value is 1.

And the “number of microorganisms, 7 days” value (Staphylococcus aureus; PET, 7 days after inoculation)?
The value was 84.000.

What about the “number of microorganisms, 14 days” value (Staphylococcus aureus; PET) of the same molecule?
The value was 1.

And the “number of microorganisms, 28 days” value (Staphylococcus aureus; PET)?
The value was 1.

What about the “count at 2 days” value (Staphylococcus aureus; SA, 2 days after inoculation, use concentration in label) of the same molecule?
The value was 520.000.

What about the “count at 7 days” value (Staphylococcus aureus; [3]) of the same molecule?
Its value is 9.300.

What about the “count at 14 days” value (Staphylococcus aureus; SA, use concentration in label) of the same molecule?
Its value is 1.

And the “count at 28 days” value (Staphylococcus aureus; SA, use concentration in label)?
Its value is 1.

And the “antimicrobial efficacy against yeast” value (yeast)?
The value was “antimicrobial efficacy”.

And the “count at 2 days” value (Escherichia coli; 2 days after inoculation)?
The value was 130.000.

What about the “count at 7 days” value (Escherichia coli; 7 days after inoculation) of the same molecule?
Its value is 19.000.

What about the “count at 14 days” value (Escherichia coli; 14 days after inoculation) of the same molecule?
Its value is 290.

And the “count at 28 days” value (Escherichia coli; 28 days after inoculation)?
The value was 18.

And the “number of microorganisms, 28 days” value (Escherichia coli; PET in shampoo, Escherichia coli (EC), 28 days after inoculation, listed as 0,4% 2,3 Octanediol)?
The value was 600.000.

And the “number of microorganisms, 2 days” value (Escherichia coli; PET, Escherichia coli (EC), 2 days after inoculation)?
The value was 48.000.

And the “number of microorganisms, 7 days” value (Escherichia coli; PET, Escherichia coli (EC), 7 days after inoculation)?
The value was 290.

And the “number of microorganisms, 14 days” value (Escherichia coli; PET, Escherichia coli (EC), 14 days after inoculation)?
The value was 1.

And the “number of microorganisms, 28 days” value (Escherichia coli; PET, Escherichia coli (EC), 28 days after inoculation)?
Its value is 1.

What about the “PA germ count, 2 days” value (Pseudomonas aeruginosa) of the same molecule?
Its value is 1.

What about the “PA germ count, 7 days” value (Pseudomonas aeruginosa) of the same molecule?
The value was 1.

And the “PA germ count, 14 days” value (Pseudomonas aeruginosa)?
The value was 1.

What about the “PA germ count, 28 days” value (Pseudomonas aeruginosa) of the same molecule?
The value was 1.

And the “count at 2 days” value (Pseudomonas aeruginosa)?
The value was 1.

And the “count at 7 days” value (Pseudomonas aeruginosa)?
Its value is 1.

What about the “count at 14 days” value (Pseudomonas aeruginosa) of the same molecule?
The value was 1.

And the “count at 28 days” value (Pseudomonas aeruginosa)?
The value was 1.

What about the “count at 2 days” value (Candida albicans; 2 days after inoculation) of the same molecule?
The value was 660.000.

What about the “count at 7 days” value (Candida albicans; 7 days after inoculation) of the same molecule?
The value was 210.000.

And the “count at 14 days” value (Candida albicans; 14 days after inoculation)?
The value was 120.000.

What about the “count at 28 days” value (Candida albicans; 28 days after inoculation) of the same molecule?
The value was 11.000.

What about the “number of microorganisms, 28 days” value (Candida albicans; PET in shampoo, 28 days after inoculation) of the same molecule?
Its value is 1.

And the “number of microorganisms, 28 days” value (Candida albicans; PET, 28 days after inoculation)?
Its value is 390.000.

And the “Maximum solubility in water” value [1]?
Its value is 1.5 % by weight.

And the “count at 2 days” value (Aspergillus brasiliensis)?
Its value is 940.000.

And the “count at 7 days” value (Aspergillus brasiliensis; 7 days after inoculation)?
Its value is 660.000.

What about the “count at 14 days” value (Aspergillus brasiliensis; 14 days after inoculation) of the same molecule?
Its value is 820.000.

And the “count at 28 days” value (Aspergillus brasiliensis; 28 days after inoculation)?
Its value is 560.000.

And the “number of microorganisms, 14 days” value (Aspergillus brasiliensis; PET in shampoo, Aspergillus brasiliensis (AB), 14 days after inoculation, listed as 0,1% 2,3 Octanediol)?
Its value is 250.000.

Which “count at 7 days” value (Staphylococcus aureus; [3]) does the source give for CCCCC(O)C(C)O (stereo not shown) [0.4% 2,3-heptanediol] here?
The value was 12.000.

And the “count at 14 days” value (Staphylococcus aureus; SA, use concentration in label)?
The value was 1.

What about the “count at 28 days” value (Staphylococcus aureus; SA, use concentration in label) of the same molecule?
The value was 1.

And the “count at 2 days” value (Escherichia coli; 2 days after inoculation)?
Its value is 320.000.

What about the “count at 7 days” value (Escherichia coli; 7 days after inoculation) of the same molecule?
The value was 2.400.

And the “count at 14 days” value (Escherichia coli; 14 days after inoculation)?
Its value is 1.

What about the “count at 28 days” value (Escherichia coli; 28 days after inoculation) of the same molecule?
The value was 1.

And the “count at 2 days” value (Pseudomonas aeruginosa)?
Its value is 1.

And the “count at 7 days” value (Pseudomonas aeruginosa)?
The value was 1.

What about the “count at 14 days” value (Pseudomonas aeruginosa) of the same molecule?
The value was 1.

What about the “count at 28 days” value (Pseudomonas aeruginosa) of the same molecule?
Its value is 1.

What about the “count at 2 days” value (Candida albicans; 2 days after inoculation) of the same molecule?
Its value is 640.000.

And the “count at 7 days” value (Candida albicans; 7 days after inoculation)?
The value was 350.000.

What about the “count at 14 days” value (Candida albicans; 14 days after inoculation) of the same molecule?
Its value is 130.000.

And the “count at 28 days” value (Candida albicans; 28 days after inoculation)?
The value was 11.000.

And the “count at 2 days” value (Aspergillus brasiliensis)?
Its value is 790.000.

And the “count at 7 days” value (Aspergillus brasiliensis; 7 days after inoculation)?
The value was 930.000.

And the “count at 14 days” value (Aspergillus brasiliensis; 14 days after inoculation)?
The value was 500.000.

And the “count at 28 days” value (Aspergillus brasiliensis; 28 days after inoculation)?
The value was 390.000.

Which “SA germ count, 2 days” value (Staphylococcus aureus; [4]) does the source give for CC(C)=CCC[C@](C)(O)[C@@H]1CC=C(C)CC1 [0.3% Dragosantol 100] here?
Its value is 370.000.

What about the “SA germ count, 7 days” value (Staphylococcus aureus; [5]) of the same molecule?
The value was 290.

What about the “SA germ count, 14 days” value (Staphylococcus aureus; [2]) of the same molecule?
Its value is 1.

What about the “SA germ count, 28 days” value (Staphylococcus aureus; [2]) of the same molecule?
The value was 1.

And the “EC germ count, 2 days” value (Escherichia coli; [4])?
The value was 120.000.

What about the “EC germ count, 7 days” value (Escherichia coli; [5]) of the same molecule?
The value was 200.

And the “EC germ count, 14 days” value (Escherichia coli; [6])?
Its value is 1.

And the “EC germ count, 28 days” value (Escherichia coli; [7])?
Its value is 1.

And the “PA germ count, 2 days” value (Pseudomonas aeruginosa)?
The value was 1.

What about the “PA germ count, 7 days” value (Pseudomonas aeruginosa) of the same molecule?
Its value is 1.

What about the “PA germ count, 14 days” value (Pseudomonas aeruginosa) of the same molecule?
Its value is 1.

What about the “PA germ count, 28 days” value (Pseudomonas aeruginosa) of the same molecule?
The value was 1.

And the “CA germ count, 2 days” value (Candida albicans; [4])?
Its value is 800.000.

What about the “CA germ count, 7 days” value (Candida albicans; [5]) of the same molecule?
The value was 920.000.

What about the “CA germ count, 14 days” value (Candida albicans; [6]) of the same molecule?
The value was 28.000.

What about the “CA germ count, 28 days” value (Candida albicans; [7]) of the same molecule?
Its value is 58.000.

And the “AB germ count, 7 days” value (Aspergillus brasiliensis; [5])?
Its value is 880.000.

What about the “AB germ count, 14 days” value (Aspergillus brasiliensis; [6]) of the same molecule?
The value was 620.000.

And the “AB germ count, 28 days” value (Aspergillus brasiliensis; [7])?
Its value is 660.000.
